Laboratory results published in paper PMC10094617, “Iron(III) Complexes with Non-Steroidal Anti-Inflammatory Drugs: Structure, Antioxidant and Anticholinergic Activity, and Interaction with Biomolecules” (International Journal of Molecular Sciences, 2023).
Counter-ions that a name gives are not always drawn.

Legend:
[1] = DPPH radical scavenging; format: biochemical; conditions: compound 0.1 mM, ethanol
Method: (§1) The antioxidant activity of complexes 1–3 was evaluated via their ability to scavenge the free radicals DPPH, hydroxyl, and ABTS. Each experiment was performed in triplicate and the standard deviation of absorbance was less than 10% of the mean.
Ethanol was also used as a control solution. The absorbance at 517 nm was recorded at room temperature, two times, after 20 and 60 min, in order to examine the time-dependence of the DPPH-scavenging activity. The DPPH-scavenging activity of the compounds was expressed as the percentage reduction of the absorbance values of the initial DPPH solution (RA%). The compounds NDGA and BHT were used as reference compounds.

[2] = Solubility of the complexes; format: physicochemical
[3] = ABTS radical cation scavenging; format: biochemical; conditions: compound 0.1 mM; 1 min after mixing
Method: as §1
Assay of radical cation scavenging activity (ABTS^+•): An ABTS cationic radical (ABTS^+•) was produced by reacting an aqueous stock solution (2 mM) of ABTS with 0.17-mM potassium persulfate and allowing the mixture to stand in the dark at room temperature for 12–16 h before use. […] Although the oxidation of ABTS commenced immediately, the absorbance became maximal and stable after 6 h. The radical was stable in this form for more than two days when stored in the dark at room temperature. The ABTS radical solution was diluted with ethanol to an absorbance of 0.70 at 734 nm. After the addition of 10 μL of complexes 1–3 or the standards (0.1 mM) in DMSO, the absorbance was recorded exactly 1 min after initial mixing. The radical scavenging activity of the complexes was expressed as the percentage inhibition of the absorbance of the initial ABTS solution (ABTS%). Trolox was used as a reference compound.

[4] = tested on: EB–DNA adduct (CT DNA); assay: EB-displacement from EB–DNA adduct (fluorescence emission); format: binding, calf
Method: EB-displacement studies: The competition of complexes 1–3 with EB was investigated by fluorescence emission spectroscopy in order to examine whether the complexes can displace EB from its DNA–EB conjugate. The DNA–EB conjugate was prepared by adding 20-μM EB and 26-μM CT DNA in the buffer solution (150-mM NaCl and 15-mM trisodium citrate at pH 7.0). The possible intercalating effect of the complexes was studied by the addition of a certain amount of a solution of the compound into a solution of the DNA–EB conjugate. The influence of each compound to the DNA–EB complex solution was obtained by recording the changes in the fluorescence emission spectra with the excitation wavelength (λex) at 540 nm.
The Stern–Volmer constant KSV is used to evaluate the quenching efficiency for each compound according to the Stern–Volmer equation (Equation (3)), where Io and I are the emission intensities in the absence and the presence of the quencher, respectively, and [Q] is the concentration of the quencher (i.e., complexes 1–3). The value of KSV is obtained from the Stern–Volmer plots by using the slope of the diagram Io/I versus [Q]. Taking τo = 23 ns as the fluorescence lifetime of the EB–DNA system, the EB–DNA quenching constants (Kq, in M^−1s^−1) of the compounds can be determined according to Equation (4).

[5] = Competition with DMSO for hydroxyl radicals; format: biochemical; conditions: compound 0.1 mM; 30 min, 37 °C, pH 7.4
Method: as §1
Competition of the tested compounds with DMSO for hydroxyl radicals: The hydroxyl radicals generated by the Fe^3+/ascorbic acid system were detected according to Nash by the determination of formaldehyde produced from the oxidation of DMSO [155]. The reaction mixture contained EDTA (0.1 mM), Fe^3+ (167 μM), DMSO (33 mM) in phosphate buffer (50 mM, pH 7.4), complexes 1–3 (concentration 0.1 mM), and ascorbic acid (10 mM). After a 30-min incubation at 37 °C, the reaction was stopped with CCl3COOH (17% w/v) and the absorbance at λ = 412 nm was measured. Trolox was used as a reference compound. The competition of the compounds with DMSO for •OH, generated by the Fe^3+/ascorbic acid system, expressed as the percentage of inhibition of formaldehyde production, was used for the evaluation of their hydroxyl radical-scavenging activity (OH%).

[6] = biological target: T1, electric eel acetylcholinesterase (eeAChE) (Electrophorus electricus, UniProt O42275); assay: Inhibition of acetylcholinesterase (modified Ellman's method); format: biochemical; conditions: 10^−3 M of the compound, pH 7.4, 37 °C; for inhibition at 1000 µM: read-out: AChE (I%) inhibition rate
T1 construct: purchased J&K Scientific Co. (Beijing, China)
Method: (§2) In the study of cholinesterase inhibitors, the inhibitory effect of the compounds (the NSAIDs and their complexes 1–3) against AChE and BuChE was examined using a modified methodology based on Ellman’s method.
(§3) The ability of the compounds to inhibit AChE and BuChE was evaluated using UV-vis spectroscopy. All the assays were carried out in a 0.1M NaH2PO4/Na2HPO4 buffer at a pH = 7.4. Enzyme solutions were prepared with 2.0 U/mL for AChE and 3.0 U/mL for BuChE. A reaction mixture containing 20 μL of phosphate buffer, 100 μL of DTNB (1-mM), and 40 μL of the enzyme (AChE and BuChE) was incubated with 20 μL of the compounds at various concentrations at 37 °C for 15 min. The reaction was started by the addition of the substrate (20-μL) of ATCI or BTCI solution (1-mM), respectively, and incubation for additional 3 min.
(§4) The enzyme activity was determined by measuring the increase in absorbance at 2-min intervals at 412 nm at 37 °C (ε = 14,150 M^−1cm^−1).
The rate of inhibition of each enzyme by the compounds was calculated according to the following expression:(1) I%=(1−VB/VA)×100 where VB and VA indicate the absorbance measured for ChEs in the presence and absence of inhibitors, respectively. The results are expressed as the average of three repetitions of the tests performed and the standard deviation was less than 3% of the mean. The selectivity index (SI), defined as IC50 BuChE/IC50 AChE, was also calculated. Neostigmine methyl sulfate was used as the appropriate standard.

[7] = biological target: T2, equine serum butyrylcholinesterase (eqBuChE) (Equus caballus, UniProt P81908); assay: Inhibition of butyrylcholinesterase (modified Ellman's method); format: biochemical; conditions: for inhibition at 1000 µM: read-out: BuChE (I%) inhibition rate; for SI (selectivity index = IBuChE/IAChE): ratio of inhibition rates at 10^−3 M
T2 construct: purchased J&K Scientific Co. (Beijing, China); host or cells: equine serum (by the product's name)
Method: as §2, §3, §4
The rate of inhibition of each enzyme by the compounds was calculated according to the following expression:(1) I%=(1−VB/VA)×100 where VB and VA indicate the absorbance measured for ChEs in the presence and absence of inhibitors, respectively. […] Neostigmine methyl sulfate was used as the appropriate standard.

[8] = set-up: method as in PMID 8216032; conditions: cited from earlier work
[9] = biological target: calf-thymus (CT) DNA; set-up: method as in PMID 3427013; conditions: cited from earlier work
[10] = 10^−3 M of the compound, pH 7.4, 37 °C

T2 sequence (P81908 whole entry): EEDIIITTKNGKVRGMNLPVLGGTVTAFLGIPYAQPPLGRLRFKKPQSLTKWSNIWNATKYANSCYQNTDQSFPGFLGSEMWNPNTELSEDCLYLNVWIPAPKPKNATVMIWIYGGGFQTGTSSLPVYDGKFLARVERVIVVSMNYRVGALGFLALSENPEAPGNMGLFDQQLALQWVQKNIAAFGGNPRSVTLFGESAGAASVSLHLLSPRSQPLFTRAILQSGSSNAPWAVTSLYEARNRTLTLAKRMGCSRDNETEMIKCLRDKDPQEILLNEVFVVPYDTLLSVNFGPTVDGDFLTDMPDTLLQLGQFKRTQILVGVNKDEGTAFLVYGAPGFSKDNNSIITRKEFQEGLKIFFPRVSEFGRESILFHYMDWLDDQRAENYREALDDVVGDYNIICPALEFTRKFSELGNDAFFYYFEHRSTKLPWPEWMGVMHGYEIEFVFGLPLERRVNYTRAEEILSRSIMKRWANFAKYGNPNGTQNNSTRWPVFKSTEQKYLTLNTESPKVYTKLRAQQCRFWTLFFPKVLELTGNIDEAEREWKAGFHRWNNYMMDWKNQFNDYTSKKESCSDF
T1 sequence (O42275 24-633): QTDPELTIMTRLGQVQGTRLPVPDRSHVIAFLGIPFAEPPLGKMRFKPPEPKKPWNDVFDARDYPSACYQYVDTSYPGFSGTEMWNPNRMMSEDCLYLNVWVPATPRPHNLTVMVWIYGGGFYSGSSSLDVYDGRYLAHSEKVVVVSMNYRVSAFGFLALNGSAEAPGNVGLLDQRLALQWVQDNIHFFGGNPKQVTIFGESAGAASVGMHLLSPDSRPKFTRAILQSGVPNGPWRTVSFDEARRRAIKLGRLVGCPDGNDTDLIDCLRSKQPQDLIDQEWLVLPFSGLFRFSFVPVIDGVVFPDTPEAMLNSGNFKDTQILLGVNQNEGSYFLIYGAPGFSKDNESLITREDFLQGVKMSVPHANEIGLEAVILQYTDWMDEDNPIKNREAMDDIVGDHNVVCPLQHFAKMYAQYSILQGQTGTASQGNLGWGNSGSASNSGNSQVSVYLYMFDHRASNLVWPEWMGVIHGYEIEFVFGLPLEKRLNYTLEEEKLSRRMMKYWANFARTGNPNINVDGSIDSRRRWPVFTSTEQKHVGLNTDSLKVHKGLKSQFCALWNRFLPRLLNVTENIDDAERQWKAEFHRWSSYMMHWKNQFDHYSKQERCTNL

SMILES | DPPH% (DPPH scavenging ability), 20 min [1] [%] | DPPH% (DPPH scavenging ability), 60 min [1] [%] | ABTS% (ABTS radical scavenging activity) [3] [%] | OH% (competition % with DMSO for hydroxyl radical) [5] [%] | inhibition at 1000 µM [6] [%] | inhibition at 1000 µM [7, 10] [%] | SI (selectivity index = IBuChE/IAChE) [7] | other results
Cc1cc(C(C)(C)C)c(O)c(C(C)(C)C)c1 [BHT, butylated hydroxytoluene] | 31.30 ± 0.10 | 60.00 ± 0.38 | – | – | – | – | – | –
C[O-].C[O-].O.O=C([O-])c1cc(-c2ccc(F)cc2F)ccc1[O-].O=C([O-])c1cc(-c2ccc(F)cc2F)ccc1[O-].[Fe+3].[Fe+3].c1cnc2c(c1)ccc1cccnc12.c1cnc2c(c1)ccc1cccnc12 [Complex 1, [Fe2(difl)2(MeO)2(phen)2]∙H2O] | 12.57 ± 0.29 | 15.86 ± 0.62 | 85.38 ± 0.92 | 91.08 ± 1.81 | – | – | – | solubility [2]: Soluble in DMF and DMSO; KSV Stern–Volmer constant (EB–DNA) ([4]; EB–DNA fluorescence): 6.37 (±0.40) × 10^5 M^−1; ΔI/Io (%) EB–DNA fluorescence quenching ([4]; [EB] = 20 μM, [DNA] = 26 μM, λex 540 nm, λem 592 nm): 66.8%; Kq quenching constant of the EB–DNA fluorescence ([4]; τo = 23 ns): 2.77 (±0.10) × 10^13 M^−1s^−1; AChE (I%) inhibition rate [6]: 1.77 ± 0.82%; BuChE (I%) inhibition rate [7, 10]: 79.25 ± 2.00%
O=C(O)c1cc(-c2ccc(F)cc2F)ccc1O [Complex H2difl, Diflunisal] | 10.42 ± 0.56 | 14.31 ± 0.45 | 76.58 ± 0.74 | 86.06 ± 0.38 | 17.2 ± 1.46 | 22.9 ± 1.71 | 1.32 | half-life period of activity [8]: ~ 12 h
CC[n+]1c(-c2ccccc2)c2cc(N)ccc2c2ccc(N)cc21.[Br-] [EB, 3,8-diamino-5-ethyl-6-phenyl-phenanthridinium bromide] | – | – | – | – | – | – | – | Kb DNA-binding constant of the classical intercalator EB [9]: 1.23 (±0.07) × 10^5 M^−1
CC(Cc1ccc(O)c(O)c1)C(C)Cc1ccc(O)c(O)c1 (centres unmarked) [NDGA, nordihydroguaiaretic acid] | 81.02 ± 0.18 | 82.60 ± 0.17 | – | – | – | – | – | –
O=C(O)Cc1ccccc1Nc1c(Cl)cccc1Cl [Nadicl, Sodium diclofenac] | 18.26 ± 0.60 | 17.43 ± 0.23 | 76.35 ± 0.75 | 75.46 ± 0.44 | 10.3 ± 1.75 | 14.1 ± 0.12 | 1.37 | –
CN(C)C(=O)Oc1cccc([N+](C)(C)C)c1 [Neo, Neostigmine methyl sulfate] | – | – | – | – | 96.98 ± 0.02 | 98.4 ± 1.55 | 1.01 | –
Cc1c(C)c2c(c(C)c1O)CCC(C)(C(=O)O)O2 (centres unmarked) [Trolox, 6-hydroxy-2,5,7,8-tetramethylchromane-2-carboxylic acid, reference compound] | – | – | 91.8 ± 0.17 | 82.80 ± 0.13 | – | – | – | –
